One may read the pKd as the Kd on a negative log10 scale, so that one unit is a factor of ten. Broadly, the Emax is the size of the effect at its maximum, as opposed to the concentration needed. As usually defined, the pEC50 is the negative decadic logarithm of the EC50, by convention in mol/L.

The target in test [1] is T1, Kir6.2-GFP + SUR1 (Homo sapiens, UniProt Q14654). The test can be described thus: Bayesian MWC-type model fits to combined patch-clamp fluorometry data. Also on record: full length, fully ANAP-labelled Kir6.2 protein was produced and successfully trafficked to the membrane in the presence of SUR1; expressed in transfected cells; host or cells: HEK-293T. Format: biochemical. To be noted: for Kd: read-out: KA (intrinsic binding affinity to the closed state) (converted). From the text:
Our simultaneous binding and current measurements were well fit with a Monod-Wyman-Changeux (MWC)-type model (Figure 2D,E; [Monod et al., 1965]) which has been previously proposed to explain KATP channel inhibition ([Enkvetchakul and Nichols, 2003]; [Craig et al., 2008]; [Vedovato et al., 2015]). In our MWC-type model, each ligand binding event ( KA ) is independent and each bound ligand favours the closed state by the same factor ( D ). Simultaneous measurement of binding (fluorescence) and gating (current) allowed us to obtain well constrained fits to our model. To obtain free parameter ( L , KA , D ) estimates and verify that each parameter was well and uniquely determined, we employed a Bayesian Markov chain Monte Carlo (MCMC) method previously employed by [Hines et al. (2014)]. Using this approach, we constructed posterior probability distributions for the free parameters of our MWC-type model (Figure 2F, Table 3). […] Our estimate of L was quite low and broadly distributed. We repeated our fits with L fixed to a value consistent with previous single channel measurements (0.8, Popen=0.45; [John et al., 1998]; [Enkvetchakul et al., 2000]; [Ribalet et al., 2006]). This had only a very small effect on our estimates of D and KA (Figure 2—figure supplement 1). The broad distribution of L in our fit may represent current rundown which occurs during our patch-clamp recordings and is expected to affect the open-closed equilibrium.
In addition to the full MWC-type model we considered alternate models (Figure 2—figure supplement 2). These included a model in which only the first binding event influences the open-closed equilibrium of the channel (single-binding model; Figure 2—figure supplement 2B, Table 3), and an MWC-style model with an additional parameter C to allow for direct negative cooperativity between binding sites (negative cooperativity model; Figure 2—figure supplement 2C, Table 3). The single-binding model yielded very similar parameter estimates to our full MWC-type model (Figure 2—figure supplement 2D, Table 3). This is a consequence of D being so low that even in the MWC-type model most channels are closed when only a single nucleotide is bound. The cooperative model improved our fits, but not enough to justify the inclusion of an additional free parameter (see Discussion).
The MWC-type models considered (Figure 2 and Figure 2—figure supplement 2) were formulated as follows:(3) F/Fmax=KA[TNPATP](1+KA[TNPATP])^3+LDKA[TNPATP](1+DKA[TNPATP])^3/(1+KA[TNPATP])^4+L(1+DKA[TNPATP])^4 (4) open channels/total channels=L(1+DKA[TNPATP])^4/(1+KA[TNPATP])^4+L(1+DKA[TNPATP])^4
The first was similar to the MWC-type model, except that the channels close after one molecule of TNP-ATP binding with subsequent binding events having no effect.(7) F/Fmax=LDKA[TNPATP](1+3KA[TNPATP]+3KA2[TNPATP]^2+KA3[TNPATP]^3)+KA[TNPATP](1+KA[TNPATP])^3/L(1+4DKA[TNPATP]+6DKA2[TNPATP]^2+4DKA3[TNPATP]^3+DKA4[TNPATP]^4)+(1+KA[TNPATP])^4 (8) I/Imax=L(1+4DKA[TNPATP]+6DKA2[TNPATP]^2+4DKA3[TNPATP]^3+DKA4[TNPATP]^4)/L(1+4DKA[TNPATP]+6DKA2[TNPATP]^2+4DKA3[TNPATP]^3+DKA4[TNPATP]^4)+(1+KA[TNPATP])^4⋅1+L/L
The second alternate model was the same as the full MWC model, but with an additional term C describing binding cooperativity between Kir6.2 subunits.(9) F/Fmax=LDKA[TNPATP](1+3CDKA[TNPATP]+3C^2D^2KA2[TNPATP]^2+C^3D^3KA3[TNPATP]^3)+KA[TNPATP](1+3CKA[TNPATP])+3C^2KA2[TNPATP]^2+C^3KA3[TNPATP]^3)/L(1+4DKA[TNPATP]+6CD^2KA2[TNPATP]^2+4C^2D^3KA3[TNPATP]^3+C^3D^4KA4[TNPATP]^4)+1+4KA[TNPATP]+6CKA2[TNPATP]^2+4C^2KA3[TNPATP]^3+C^3KA4[TNPATP]^4 (10) I/Imax=L(1+4DKA[TNPATP]+6CD^2KA2[TNPATP]^2+4C^2D^3KA3[TNPATP]^3+C^3D^4KA4[TNPATP]^4)/L(1+4DKA[TNPATP]+6CD^2KA2[TNPATP]^2+4C^2D^3KA3[TNPATP]^3+C^3D^4KA4[TNPATP]^4)+1+4KA[TNPATP]+6C^2KA2[TNPATP]^2+4C^2KA3[TNPATP]^3+C^3KA4[TNPATP]^4⋅1+L/L […]
A general note: The patch-clamp technique gives a direct electrical read-out from membranes.

Test [2] concerns the target T1, Kir6.2-GFP + SUR1. The test can be described thus: ANAP fluorescence quenching in excised patches (patch-clamp fluorometry). It is filed as binding. Also on record: full length, fully ANAP-labelled Kir6.2 protein was produced and successfully trafficked to the membrane in the presence of SUR1; expressed in transfected cells; host or cells: HEK-293T. To be noted: excised patches (PCF), Hill fit. The method, then: Currents were measured as described above.
ANAP bleaching was corrected as for the unroofed binding experiments with Equation 1 (Figure 2—figure supplement 3A). Due to the lower signal-to-noise ratio for PCF compared to the unroofed membranes, we performed experiments from both high-to-low and low-to-high TNP-ATP concentrations to minimise artifacts from our bleaching corrections.

The mark [3] stands for this setting: Full MWC model, median estimate.
[4] abbreviates: Single-site (single-binding) model.

pEC50, pKd: −log10 of the molar value. Where two headings read alike, the source gives them in different places.

T1 sequence (Q14654 whole entry): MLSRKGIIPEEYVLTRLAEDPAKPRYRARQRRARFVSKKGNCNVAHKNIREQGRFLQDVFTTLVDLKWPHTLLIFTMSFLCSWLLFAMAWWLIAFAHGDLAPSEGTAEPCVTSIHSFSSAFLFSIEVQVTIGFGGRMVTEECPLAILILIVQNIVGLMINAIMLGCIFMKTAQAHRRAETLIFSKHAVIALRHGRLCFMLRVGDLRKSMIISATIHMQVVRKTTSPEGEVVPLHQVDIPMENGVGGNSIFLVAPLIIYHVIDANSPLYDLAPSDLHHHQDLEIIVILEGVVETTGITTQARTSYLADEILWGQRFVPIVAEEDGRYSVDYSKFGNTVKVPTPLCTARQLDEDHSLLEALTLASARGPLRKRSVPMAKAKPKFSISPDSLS
T1 sequence (Q09428 whole entry partner): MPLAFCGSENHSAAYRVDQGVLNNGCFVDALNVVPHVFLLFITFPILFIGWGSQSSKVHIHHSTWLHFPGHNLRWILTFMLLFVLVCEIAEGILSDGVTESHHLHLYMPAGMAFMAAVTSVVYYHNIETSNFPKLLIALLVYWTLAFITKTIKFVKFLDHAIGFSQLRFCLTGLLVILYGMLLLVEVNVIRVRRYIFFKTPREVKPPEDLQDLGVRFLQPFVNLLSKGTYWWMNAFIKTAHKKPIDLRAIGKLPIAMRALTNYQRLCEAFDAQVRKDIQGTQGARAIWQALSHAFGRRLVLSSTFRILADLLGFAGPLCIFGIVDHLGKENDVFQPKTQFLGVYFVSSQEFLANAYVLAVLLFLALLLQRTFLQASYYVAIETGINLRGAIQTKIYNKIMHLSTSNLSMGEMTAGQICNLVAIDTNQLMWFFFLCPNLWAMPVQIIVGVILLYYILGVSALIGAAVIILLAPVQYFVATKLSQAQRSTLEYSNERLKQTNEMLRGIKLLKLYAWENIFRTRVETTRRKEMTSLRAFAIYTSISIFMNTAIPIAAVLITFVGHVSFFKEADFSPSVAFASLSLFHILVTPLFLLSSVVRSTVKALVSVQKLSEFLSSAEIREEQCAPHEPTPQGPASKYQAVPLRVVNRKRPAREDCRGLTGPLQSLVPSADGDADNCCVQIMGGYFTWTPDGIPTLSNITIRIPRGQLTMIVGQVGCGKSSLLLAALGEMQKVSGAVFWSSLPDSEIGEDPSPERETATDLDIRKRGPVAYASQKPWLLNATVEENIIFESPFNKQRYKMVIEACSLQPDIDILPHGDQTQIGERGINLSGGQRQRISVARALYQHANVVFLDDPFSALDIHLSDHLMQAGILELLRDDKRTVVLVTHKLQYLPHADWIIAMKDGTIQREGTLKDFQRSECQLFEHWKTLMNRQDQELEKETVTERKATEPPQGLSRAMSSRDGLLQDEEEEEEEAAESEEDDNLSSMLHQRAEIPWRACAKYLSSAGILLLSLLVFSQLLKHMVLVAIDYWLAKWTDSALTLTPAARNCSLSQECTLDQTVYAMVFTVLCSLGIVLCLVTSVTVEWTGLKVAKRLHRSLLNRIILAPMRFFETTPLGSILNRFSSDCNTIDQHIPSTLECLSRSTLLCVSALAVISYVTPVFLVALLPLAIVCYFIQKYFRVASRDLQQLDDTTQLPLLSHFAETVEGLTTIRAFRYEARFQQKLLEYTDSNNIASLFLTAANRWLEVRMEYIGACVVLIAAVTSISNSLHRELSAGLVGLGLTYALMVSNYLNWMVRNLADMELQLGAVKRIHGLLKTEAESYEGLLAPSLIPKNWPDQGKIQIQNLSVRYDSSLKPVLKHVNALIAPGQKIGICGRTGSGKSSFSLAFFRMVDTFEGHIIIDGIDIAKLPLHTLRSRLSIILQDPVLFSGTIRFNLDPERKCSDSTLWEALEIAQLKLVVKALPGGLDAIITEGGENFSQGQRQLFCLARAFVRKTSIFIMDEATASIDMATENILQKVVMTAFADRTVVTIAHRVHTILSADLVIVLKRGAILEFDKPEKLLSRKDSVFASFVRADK

As for `Nc1ncnc2c1ncn2[C@@H]1O[C@H](COP(=O)(O)OP(=O)(O)OP(=O)(O)O)[C@H]2OC3(O[C@H]21)C([N+](=O)[O-])=CC(=[N+]([O-])[O-])C=C3[N+](=O)[O-]` (stereo partly shown) [TNP-ATP, trinitrophenyl-ATP], in test [1] (Full MWC model, PCF, inhibitory site on Kir6.2), the KA stood at 21000 M⁻¹. In test [1] (Full MWC model, from KA, read-out: KD), the pKd was 4.32. Moreover, the L in test [1] (Full MWC model, linear value) came to 0.09. Moreover, in test [1] (setting [3]), the “D (factor by which nucleotide binding favours channel closure)” value is on record as 0.04 and the “L (unliganded open-closed equilibrium constant)” value is −1.05 log10. For the same molecule, the Popen in test [1] (Full MWC model, unliganded, from L) came out at 0.08. Further, in test [1] (Negative cooperativity model), the “C (binding cooperativity between Kir6.2 subunits)” value came to 0.17, the “D (factor by which nucleotide binding favours channel closure)” value came to 0.15, the “L (unliganded open-closed equilibrium constant)” value was −0.42 log10 and the Kd was 15.1 µM. In addition, in test [1] (setting [4]), the “D (factor by which nucleotide binding favours channel closure)” value worked out at 0.05, the “L (unliganded open-closed equilibrium constant)” value is on record as −1.06 log10 and the Kd is 46.8 µM. For the same molecule, the “h (Hill coefficient) fluorescence quenching” value in test [2] is listed as 0.87. The Emax in test [2] (fraction) worked out at 100%. In addition, the negative logarithm of the EC50 (pEC50) in test [2] (n = 9) is 4.11.

These data come from article PMC7004565, “Nucleotide inhibition of the pancreatic ATP-sensitive K^+ channel explored with patch-clamp fluorometry” (eLife, 2020).
